Assay results: US20240208968A1, “ALPHA V BETA 6 AND ALPHA V BETA 1 INTEGRIN INHIBITORS AND USES THEREOF” (DiCE Molecules SV, Inc., priority 2021, published 2024)
Structures can show the parent of a compound that is named as a salt.

Legend:
αvβ1 = αvβ1 (Homo sapiens, UniProt P05556+P06756); assay: Solid Phase Integrin αvβ1 Assay; format: binding
Procedure: (§1) The compounds exemplified in this document were tested for their ability to inhibit αvβ1 and αvβ6 in below described solid phase integrin assays.
Solid Phase Integrin αvβ1 Assay
96-well microtiter plates (4 HBX Immulon; Thermo Fisher Scientific, Waltham, MA) were coated with 100 μL/well of 1 μg/mL recombinant TGFb1-LAP in TBS at 4° C., overnight. The coating solution was removed, and plates were blocked with 200 μL/well of blocking and binding buffer (2% BSA/TBST, 1 mM MnCl2) at room temperature for 1 hr. Blocking buffer was removed and 50 μL of binding buffer and testing compounds were added. 50 μL of diluted αvβ1 (0.2 ug/mL in binding buffer) was added to wells (100 μL/well total) for and plates incubated for 90 min at room temperature. Wells were washed thrice with washing buffer (TBS, 0.05% Tween, 1 mM MnCl2) and plates were incubated with 100 μL/well of a 1:12500 dilution of streptavidin-horseradish peroxidase conjugate (Thermo Fisher Scientific) in binding buffer for 20 min at room temperature. Bound protein was detected using the substrate TMB. The IC50 values for testing compounds were calculated by Levenberg-Marquardt four parameter fitting logistics.

αvβ6 = αvβ6 (Homo sapiens, UniProt P06756+P18564); assay: Solid Phase Integrin αvβ6 Assay; format: binding
Sequence of αvβ6 (P06756 31-992 limits assumed): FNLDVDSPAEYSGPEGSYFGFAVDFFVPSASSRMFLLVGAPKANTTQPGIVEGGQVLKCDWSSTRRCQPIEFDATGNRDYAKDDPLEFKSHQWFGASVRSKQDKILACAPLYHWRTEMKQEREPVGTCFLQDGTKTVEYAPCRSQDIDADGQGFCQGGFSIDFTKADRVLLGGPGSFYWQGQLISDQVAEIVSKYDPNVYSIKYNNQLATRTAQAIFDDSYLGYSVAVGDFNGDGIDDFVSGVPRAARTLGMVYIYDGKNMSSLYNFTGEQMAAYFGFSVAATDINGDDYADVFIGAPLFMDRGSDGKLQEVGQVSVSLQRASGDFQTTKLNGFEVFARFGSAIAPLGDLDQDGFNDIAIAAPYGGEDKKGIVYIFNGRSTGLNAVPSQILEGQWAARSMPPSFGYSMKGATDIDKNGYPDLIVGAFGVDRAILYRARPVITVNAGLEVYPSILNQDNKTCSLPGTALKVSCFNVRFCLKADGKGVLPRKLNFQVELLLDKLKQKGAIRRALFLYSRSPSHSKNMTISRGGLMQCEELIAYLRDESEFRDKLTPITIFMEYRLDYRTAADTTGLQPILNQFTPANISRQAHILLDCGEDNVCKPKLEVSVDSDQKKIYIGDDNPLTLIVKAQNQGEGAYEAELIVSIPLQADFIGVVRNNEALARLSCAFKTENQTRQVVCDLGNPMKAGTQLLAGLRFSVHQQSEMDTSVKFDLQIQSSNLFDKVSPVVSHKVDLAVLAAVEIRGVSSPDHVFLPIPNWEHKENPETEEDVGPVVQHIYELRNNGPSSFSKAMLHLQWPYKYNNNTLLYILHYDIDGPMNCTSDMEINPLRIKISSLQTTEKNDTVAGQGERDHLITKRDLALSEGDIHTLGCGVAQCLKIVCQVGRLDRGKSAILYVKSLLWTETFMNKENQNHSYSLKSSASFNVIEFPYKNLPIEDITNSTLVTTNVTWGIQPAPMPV
Sequence of αvβ6 (P18564 22-707 limits assumed): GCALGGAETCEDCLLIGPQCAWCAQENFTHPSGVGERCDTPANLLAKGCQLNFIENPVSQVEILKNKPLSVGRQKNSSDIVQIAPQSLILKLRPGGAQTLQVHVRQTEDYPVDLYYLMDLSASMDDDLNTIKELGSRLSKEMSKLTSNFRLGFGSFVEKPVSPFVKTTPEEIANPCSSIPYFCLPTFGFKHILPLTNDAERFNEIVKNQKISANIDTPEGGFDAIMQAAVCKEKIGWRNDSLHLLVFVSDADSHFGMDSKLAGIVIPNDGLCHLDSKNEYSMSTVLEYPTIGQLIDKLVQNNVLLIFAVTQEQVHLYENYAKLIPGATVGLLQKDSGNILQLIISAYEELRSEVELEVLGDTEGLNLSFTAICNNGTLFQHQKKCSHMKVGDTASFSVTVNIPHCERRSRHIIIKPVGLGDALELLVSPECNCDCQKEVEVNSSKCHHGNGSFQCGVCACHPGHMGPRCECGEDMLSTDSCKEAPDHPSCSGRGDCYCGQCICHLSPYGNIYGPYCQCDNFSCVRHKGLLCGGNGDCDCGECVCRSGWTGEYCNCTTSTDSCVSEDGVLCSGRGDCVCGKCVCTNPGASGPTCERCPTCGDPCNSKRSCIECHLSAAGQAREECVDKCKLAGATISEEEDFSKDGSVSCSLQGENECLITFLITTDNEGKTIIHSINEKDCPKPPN
Procedure: as §1
Solid Phase Integrin αvβ6 Assay
96-well microtiter plates (4 HBX Immulon; Thermo Fisher Scientific, Waltham, MA) were coated with 100 μL/well of 1 μg/mL recombinant TGFb1-LAP in TBS at 4° C., overnight. The coating solution was removed, and plates were blocked with 200 μL/well of blocking and binding buffer (2% BSA/TBST, 1 mM MnCl2) at room temperature for 1 hr. Blocking buffer was removed and 50 uL of binding buffer and testing compounds were added. 50 μL of diluted αvβ6 (0.2 μg/mL in binding buffer) was added to wells (100 uL/well total) and plates incubated for 1 hr at room temperature. Wells were washed thrice with washing buffer (TBS, 0.05% Tween, 1 mM MnCl2) and plates were incubated with 100 μL/well of a 1:12500) dilution of streptavidin-horseradish peroxidase conjugate (Thermo Fisher Scientific) in binding buffer for 20 min at room temperature. Bound protein was detected using the substrate TMB. The IC50 values for testing compounds were calculated by Levenberg-Marquardt four parameter fitting logistics.

Sequence of αvβ1 (P06756 31-992 limits assumed): as the sequence (P06756 31-992 limits assumed) above
Sequence of αvβ1 (P05556 21-728 limits assumed): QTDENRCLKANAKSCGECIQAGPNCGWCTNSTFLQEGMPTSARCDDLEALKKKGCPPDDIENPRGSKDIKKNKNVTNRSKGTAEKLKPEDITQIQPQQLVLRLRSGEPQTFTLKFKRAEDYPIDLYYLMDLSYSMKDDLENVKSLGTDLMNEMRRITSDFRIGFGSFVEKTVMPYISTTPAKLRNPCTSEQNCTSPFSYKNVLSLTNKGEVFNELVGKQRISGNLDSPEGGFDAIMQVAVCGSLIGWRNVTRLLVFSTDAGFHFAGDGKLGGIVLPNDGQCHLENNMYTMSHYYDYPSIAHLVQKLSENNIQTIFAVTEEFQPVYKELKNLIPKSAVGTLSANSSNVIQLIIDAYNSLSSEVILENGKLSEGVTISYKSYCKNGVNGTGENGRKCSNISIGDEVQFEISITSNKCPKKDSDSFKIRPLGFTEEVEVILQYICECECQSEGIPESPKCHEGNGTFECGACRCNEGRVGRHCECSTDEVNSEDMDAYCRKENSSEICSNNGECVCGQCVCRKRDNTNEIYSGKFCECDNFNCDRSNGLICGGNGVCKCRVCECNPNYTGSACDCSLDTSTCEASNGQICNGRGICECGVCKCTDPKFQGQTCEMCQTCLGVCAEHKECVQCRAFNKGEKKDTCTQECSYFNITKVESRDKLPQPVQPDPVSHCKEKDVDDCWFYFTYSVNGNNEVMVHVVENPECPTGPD

IC50 (αvβ1)	IC50 (αvβ6)	Structure (SMILES)
< 100 nM	< 100 nM	O=C(O)C[C@H](NC(=O)[C@@H]1CCCN(CCCc2ccc3c(n2)NCCC3)C1)c1cccc(N2CC3CCC2CO3)c1 (single isomer, unassigned) [Compound 241-A]
< 100 nM	< 100 nM	O=C(O)C[C@H](NC(=O)[C@@H]1CCCN(CCCc2ccc3c(n2)NCCC3)C1)c1cccc(N2CC3CCC2CO3)c1 (single isomer, unassigned) [Compound 241-B]
< 100 nM	100 to 1000 nM	O=C(O)C(CNC(=O)[C@@H]1CCCN(CCCc2ccc3c(n2)NCCC3)C1)c1ccc(C2CC2)cc1 (single isomer, unassigned) [Compound 259-B]
100 to 1000 nM	< 100 nM	O=C(O)C[C@H](NC(=O)[C@@H]1CCCN(CCCc2ccc3c(n2)NCCC3)C1)c1ccc2c(c1)CCC2 [Compound 201-A, 3-(2,3-dihydro-1H-inden-5-yl)-3-((R)-1-(3-(5,6,7,8-tetrahydro-1,8-naphthyridin-2-yl)propyl)piperidine-3-carboxamido)propanoic acid hydrochloride]
< 100 nM	< 100 nM	O=C(O)C[C@@H](NC(=O)[C@@H]1CCCN(CCCc2ccc3c(n2)NCCC3)C1)c1ccc2c(c1)CCC2 [Compound 201-B, 3-(2,3-dihydro-1H-inden-5-yl)-3-((R)-1-(3-(5,6,7,8-tetrahydro-1,8-naphthyridin-2-yl)propyl)piperidine-3-carboxamido)propanoic acid hydrochloride]
< 100 nM	< 100 nM	O=C(O)C[C@H](NC(=O)[C@@H]1CCCN(CCCc2ccc3c(n2)NCCC3)C1)c1ccccc1 [Compound 202, (S)-3-phenyl-3-((R)-1-(3-(5,6,7,8-tetrahydro-1,8-naphthyridin-2-yl)propyl)piperidine-3-carboxamido)propanoic acid hydrochloride]
< 100 nM	< 100 nM	O=C(O)C[C@H](NC(=O)[C@@H]1CCCN(CCCc2ccc3c(n2)NCCC3)C1)c1ccc2c(c1)CCCC2 [Compound 204-A, 3-((R)-1-(3-(5,6,7,8-tetrahydro-1,8-naphthyridin-2-yl)propyl)piperidine-3-carboxamido)-3-(5,6,7,8-tetrahydronaphthalen-2-yl)propanoic acid]
< 100 nM	< 100 nM	O=C(O)C[C@H](NC(=O)[C@@H]1CCCN(CCCc2ccc3c(n2)NCCC3)C1)c1cccc(Br)c1 [Compound 205, (S)-3-(3-bromophenyl)-3-((R)-1-(3-(5,6,7,8-tetrahydro-1,8-naphthyridin-2-yl)propyl)piperidine-3-carboxamido)propanoic acid hydrochloride]
< 100 nM	< 100 nM	O=C(O)C[C@@H](NC(=O)[C@@H]1CCCN(CCCc2ccc3c(n2)NCCC3)C1)c1ccc2ccccc2c1 [Compound 206, (R)-3-(naphthalen-2-yl)-3-((R)-1-(3-(5,6,7,8-tetrahydro-1,8-naphthyridin-2-yl)propyl)piperidine-3-carboxamido)propanoic acid hydrochloride]
100 to 1000 nM	100 to 1000 nM	O=C(O)C[C@H](NC(=O)[C@@H]1CCCN(CCCc2ccc3c(n2)NCCC3)C1)c1ccc2ccccc2c1 [Compound 207, (S)-3-(naphthalen-2-yl)-3-((R)-1-(3-(5,6,7,8-tetrahydro-1,8-naphthyridin-2-yl)propyl)piperidine-3-carboxamido)propanoic acid hydrochloride]
< 100 nM	< 100 nM	O=C(O)C[C@@H](NC(=O)[C@@H]1CCCN(CCCc2ccc3c(n2)NCCC3)C1)c1cc(F)cc(C(F)(F)F)c1 [Compound 208-A, 3-(3-fluoro-5-(trifluoromethyl)phenyl)-3-((R)-1-(3-(5,6,7,8-tetrahydro-1,8-naphthyridin-2-yl)propyl)piperidine-3-carboxamido)propanoic acid]
> 1000 nM	100 to 1000 nM	O=C(O)C[C@H](NC(=O)[C@@H]1CCCN(CCCc2ccc3c(n2)NCCC3)C1)c1cc(F)cc(C(F)(F)F)c1 [Compound 208-B, 3-(3-fluoro-5-(trifluoromethyl)phenyl)-3-((R)-1-(3-(5,6,7,8-tetrahydro-1,8-naphthyridin-2-yl)propyl)piperidine-3-carboxamido)propanoic acid]
< 100 nM	< 100 nM	O=C(O)C[C@H](NC(=O)[C@@H]1CCCN(CCCc2ccc3c(n2)NCCC3)C1)c1cccc(Oc2ccccc2)c1 [Compound 209-A, 3-(3-phenoxyphenyl)-3-((R)-1-(3-(5,6,7,8-tetrahydro-1,8-naphthyridin-2-yl)propyl)piperidine-3-carboxamido)propanoic acid]
> 1000 nM	100 to 1000 nM	O=C(O)C[C@@H](NC(=O)[C@@H]1CCCN(CCCc2ccc3c(n2)NCCC3)C1)c1cccc(Oc2ccccc2)c1 [Compound 209-B, 3-(3-phenoxyphenyl)-3-((R)-1-(3-(5,6,7,8-tetrahydro-1,8-naphthyridin-2-yl)propyl)piperidine-3-carboxamido)propanoic acid]
100 to 1000 nM	100 to 1000 nM	COc1ccc(C(C)C)c(C(CC(=O)O)NC(=O)[C@@H]2CCCN(CCCc3ccc4c(n3)NCCC4)C2)c1 (stereo partly drawn) [Compound 210, 3-(2-isopropyl-5-methoxyphenyl)-3-((R)-1-(3-(5,6,7,8-tetrahydro-1,8-naphthyridin-2-yl)propyl)piperidine-3-carboxamido)propanoic acid hydrochloride]
< 100 nM	< 100 nM	O=C(O)C[C@H](NC(=O)[C@@H]1CCCN(CCCc2ccc3c(n2)NCCC3)C1)c1cccc2c1CCC2 [Compound 211-A, 3-(2,3-dihydro-1H-inden-4-yl)-3-((R)-1-(3-(5,6,7,8-tetrahydro-1,8-naphthyridin-2-yl)propyl)piperidine-3-carboxamido)propanoic acid]
> 1000 nM	100 to 1000 nM	O=C(O)C[C@@H](NC(=O)[C@@H]1CCCN(CCCc2ccc3c(n2)NCCC3)C1)c1cccc2c1CCC2 [Compound 211-B, 3-(2,3-dihydro-1H-inden-4-yl)-3-((R)-1-(3-(5,6,7,8-tetrahydro-1,8-naphthyridin-2-yl)propyl)piperidine-3-carboxamido)propanoic acid]
> 1000 nM	> 1000 nM	O=C(O)C[C@H](NC(=O)[C@@H]1CCCN(CCCc2ccc3c(n2)NCCC3)C1)c1cccc2c1CCCC2 [Compound 212-A, 3-((R)-1-(3-(5,6,7,8-tetrahydro-1,8-naphthyridin-2-yl)propyl)piperidine-3-carboxamido)-3-(5,6,7,8-tetrahydronaphthalen-1-yl)propanoic acid]
100 to 1000 nM	< 100 nM	O=C(O)C[C@@H](NC(=O)[C@@H]1CCCN(CCCc2ccc3c(n2)NCCC3)C1)c1cccc2c1CCCC2 [Compound 212-B, 3-((R)-1-(3-(5,6,7,8-tetrahydro-1,8-naphthyridin-2-yl)propyl)piperidine-3-carboxamido)-3-(5,6,7,8-tetrahydronaphthalen-1-yl)propanoic acid]
< 100 nM	< 100 nM	O=C(O)CC(NC(=O)[C@@H]1CCCN(CCCc2ccc3c(n2)NCCC3)C1)c1ccc2c(c1)CCO2 (stereo partly drawn) [Compound 213, 3-(2,3-dihydrobenzofuran-5-yl)-3-((R)-1-(3-(5,6,7,8-tetrahydro-1,8-naphthyridin-2-yl)propyl)piperidine-3-carboxamido)propanoic acid hydrochloride]
< 100 nM	< 100 nM	O=C(O)C[C@H](NC(=O)[C@@H]1CCCN(CCCc2ccc3c(n2)NCCC3)C1)c1ccc2c(c1)OCO2 [Compound 214, (S)-3-(benzo[d][1,3]dioxol-5-yl)-3-((R)-1-(3-(5,6,7,8-tetrahydro-1,8-naphthyridin-2-yl)propyl)piperidine-3-carboxamido)propanoic acid]
< 100 nM	< 100 nM	O=C(O)C[C@H](NC(=O)[C@@H]1CCCN(CCCc2ccc3c(n2)NCCC3)C1)c1ccc2nccnc2c1 [Compound 215-A, 3-(quinoxalin-6-yl)-3-((R)-1-(3-(5,6,7,8-tetrahydro-1,8-naphthyridin-2-yl)propyl)piperidine-3-carboxamido)propanoic acid]
< 100 nM	< 100 nM	O=C(O)C[C@@H](NC(=O)[C@@H]1CCCN(CCCc2ccc3c(n2)NCCC3)C1)c1ccc2nccnc2c1 [Compound 215-B, 3-(quinoxalin-6-yl)-3-((R)-1-(3-(5,6,7,8-tetrahydro-1,8-naphthyridin-2-yl)propyl)piperidine-3-carboxamido)propanoic acid]
100 to 1000 nM	< 100 nM	O=C(O)C[C@H](NC(=O)[C@@H]1CCCN(CCCc2ccc3c(n2)NCCC3)C1)c1cccc2c1CCCO2 [Compound 216-A, 3-(chroman-5-yl)-3-((R)-1-(3-(5,6,7,8-tetrahydro-1,8-naphthyridin-2-yl)propyl)piperidine-3-carboxamido)propanoic acid]
